Measurements reported in US6613718B2, “Aryl ether derivatives and processes for their preparation and herbicidal and desiccant compositions containing them” (Ishihara Sangyo Kaisha, Ltd., priority 2001, dated 2003).

Legend:
Assay type in all cases: in vivo
Conditions in all cases: 14 days after application
[1] = system: field corn (Zea mays L., var. Dekalb 535, CORN); experiment: Post-emerge greenhouse screening, crop safety / corn selectivity (phytotoxicity rating)
Summary of the method: (§1)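 Efficacy scores (0 = no damage; 100 = every plant killed) came from visual inspection 14 days after spraying. Compounds were delivered in acetone to sandy loam pots at 15-1000 g ai/ha, pre- or post-emergence.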

[2] = system: green foxtail (Setaria viridis, SETVI); experiment: Post-emerge greenhouse herbicide activity screening, phytotoxicity rating
Summary of the method: as §1

[3] = system: lambsquarters (Chenopodium album, CHEAL); experiment: as above
Summary of the method: as §1

[4] = system: sicklepod (Cassia obtusifolia, CASOB); experiment: as above
Summary of the method: as §1

[5] = system: velvetleaf (Abutilon theophrasti, ABUTH); experiment: as above
Summary of the method: as §1

[6] = system: common ragweed (Ambrosia artemisiifolia L., AMBEL); experiment: as above
Summary of the method: as §1

[7] = system: barnyardgrass (Echinochloa crus-galli, ECHCG); experiment: as above
Summary of the method: as §1

[8] = system: redroot pigweed (Amaranthus retroflexus, AMARE); experiment: as above
Summary of the method: as §1

[9] = system: large crabgrass (Digitaria sanguinalis, DIGSA); experiment: as above
Summary of the method: as §1

[10] = system: johnsongrass (Sorghum halepense, SORHA); experiment: as above
Summary of the method: as §1

[11] = system: ivyleaf morningglory (Ipomoea hederacea, IPOHE); experiment: as above
Summary of the method: as §1

[12] = system: green foxtail (Setaria viridis, SETVI); experiment: Pre-emerge greenhouse herbicide activity screening, phytotoxicity rating
Summary of the method: as §1

[13] = system: lambsquarters (Chenopodium album, CHEAL); experiment: as above
Summary of the method: as §1

[14] = system: sicklepod (Cassia obtusifolia, CASOB); experiment: as above
Summary of the method: as §1

[15] = system: velvetleaf (Abutilon theophrasti, ABUTH); experiment: as above
Summary of the method: as §1

[16] = system: common ragweed (Ambrosia artemisiifolia L., AMBEL); experiment: as above
Summary of the method: as §1

[17] = system: barnyardgrass (Echinochloa crus-galli, ECHCG); experiment: as above
Summary of the method: as §1

[18] = system: redroot pigweed (Amaranthus retroflexus, AMARE); experiment: as above
Summary of the method: as §1

[19] = system: large crabgrass (Digitaria sanguinalis, DIGSA); experiment: as above
Summary of the method: as §1

[20] = system: johnsongrass (Sorghum halepense, SORHA); experiment: as above
Summary of the method: as §1

[21] = system: ivyleaf morningglory (Ipomoea hederacea, IPOHE); experiment: as above
Summary of the method: as §1

[22] = system: field corn (Zea mays L., var. Dekalb 535, CORN); experiment: Pre-emerge greenhouse screening, crop safety (phytotoxicity rating)
Summary of the method: as §1

[23] = system: upland rice (Oryza sp., var.Tebonnet, RICE); experiment: as above
Summary of the method: as §1

[24] = system: soybean (Glycine max L., var. Pella 86, SOY); experiment: as above
Summary of the method: as §1

[25] = system: upland rice (Oryza sp., var.Tebonnet, RICE); experiment: Post-emerge greenhouse screening, crop safety (phytotoxicity rating)
Summary of the method: as §1

[26] = system: soybean (Glycine max L., var. Pella 86, SOY); experiment: as above
Summary of the method: as §1

## Cn1c(=S)n(C)c(=O)n(-c2cc(Oc3ccccc3N)c(Cl)cc2F)c1=O [Compound 2-18]
[1]; 125 g ai/ha
  CORN crop damage, phytotoxicity rating (0-100 scale): 0
[1]; 250 g ai/ha
  CORN crop damage, phytotoxicity rating (0-100 scale): 0
[2]; 125 g ai/ha
  SETVI phytotoxicity rating (0-100 scale): 50
[2]; 250 g ai/ha
  SETVI phytotoxicity rating (0-100 scale): 50
[3]; 125 g ai/ha
  CHEAL phytotoxicity rating (0-100 scale): 70
[3]; 250 g ai/ha
  CHEAL phytotoxicity rating (0-100 scale): 70
[4]; 125 g ai/ha
  CASOB phytotoxicity rating (0-100 scale): 0
[4]; 250 g ai/ha
  CASOB phytotoxicity rating (0-100 scale): 0
[5]; 125 g ai/ha
  ABUTH phytotoxicity rating (0-100 scale): 0
[5]; 250 g ai/ha
  ABUTH phytotoxicity rating (0-100 scale): 40
[6]; 125 g ai/ha
  AMBEL phytotoxicity rating (0-100 scale): 0
[6]; 250 g ai/ha
  AMBEL phytotoxicity rating (0-100 scale): 0
[7]; 125 g ai/ha
  ECHCG phytotoxicity rating (0-100 scale): 0
[7]; 250 g ai/ha
  ECHCG phytotoxicity rating (0-100 scale): 35
[8]; 125 g ai/ha
  AMARE phytotoxicity rating (0-100 scale): 80
[8]; 250 g ai/ha
  AMARE phytotoxicity rating (0-100 scale): 80
[9]; 125 g ai/ha
  DIGSA phytotoxicity rating (0-100 scale): 0
[9]; 250 g ai/ha
  DIGSA phytotoxicity rating (0-100 scale): 0
[10]; 125 g ai/ha
  SORHA phytotoxicity rating (0-100 scale): 0
[10]; 250 g ai/ha
  SORHA phytotoxicity rating (0-100 scale): 0
[11]; 125 g ai/ha
  IPOHE phytotoxicity rating (0-100 scale): 0
[11]; 250 g ai/ha
  IPOHE phytotoxicity rating (0-100 scale): 0
[12]; 125 g ai/ha
  SETVI phytotoxicity rating (0-100 scale): 60
[12]; 250 g ai/ha
  SETVI phytotoxicity rating (0-100 scale): 95
[13]; 125 g ai/ha
  CHEAL phytotoxicity rating (0-100 scale): 100
[13]; 250 g ai/ha
  CHEAL phytotoxicity rating (0-100 scale): 100
[14]; 125 g ai/ha
  CASOB phytotoxicity rating (0-100 scale): 20
[14]; 250 g ai/ha
  CASOB phytotoxicity rating (0-100 scale): 35
[15]; 125 g ai/ha
  ABUTH phytotoxicity rating (0-100 scale): 55
[15]; 250 g ai/ha
  ABUTH phytotoxicity rating (0-100 scale): 60
[16]; 125 g ai/ha
  AMBEL phytotoxicity rating (0-100 scale): 50
[16]; 250 g ai/ha
  AMBEL phytotoxicity rating (0-100 scale): 55
[17]; 125 g ai/ha
  ECHCG phytotoxicity rating (0-100 scale): 35
[17]; 250 g ai/ha
  ECHCG phytotoxicity rating (0-100 scale): 60
[18]; 125 g ai/ha
  AMARE phytotoxicity rating (0-100 scale): 99
[18]; 250 g ai/ha
  AMARE phytotoxicity rating (0-100 scale): 100
[19]; 125 g ai/ha
  DIGSA phytotoxicity rating (0-100 scale): 75
[19]; 250 g ai/ha
  DIGSA phytotoxicity rating (0-100 scale): 80
[20]; 125 g ai/ha
  SORHA phytotoxicity rating (0-100 scale): 35
[20]; 250 g ai/ha
  SORHA phytotoxicity rating (0-100 scale): 75
[21]; 125 g ai/ha
  IPOHE phytotoxicity rating (0-100 scale): 0
[21]; 250 g ai/ha
  IPOHE phytotoxicity rating (0-100 scale): 10
[22]; 125 g ai/ha
  CORN crop damage, phytotoxicity rating (0-100 scale): 0
[22]; 250 g ai/ha
  CORN crop damage, phytotoxicity rating (0-100 scale): 5
[23]; 125 g ai/ha
  RICE crop damage, phytotoxicity rating (0-100 scale): 0
[23]; 250 g ai/ha
  RICE crop damage, phytotoxicity rating (0-100 scale): 0
[24]; 125 g ai/ha
  SOY crop damage, phytotoxicity rating (0-100 scale): 0
[24]; 250 g ai/ha
  SOY crop damage, phytotoxicity rating (0-100 scale): 0
[25]; 125 g ai/ha
  RICE crop damage, phytotoxicity rating (0-100 scale): 0
[25]; 250 g ai/ha
  RICE crop damage, phytotoxicity rating (0-100 scale): 0
[26]; 125 g ai/ha
  SOY crop damage, phytotoxicity rating (0-100 scale): 0
[26]; 250 g ai/ha
  SOY crop damage, phytotoxicity rating (0-100 scale): 0

## Cn1nc(-c2cc(Oc3ncccn3)c(Cl)cc2F)c(=O)n(C)c1=S [Compound 4-1, 6-[4-Chloro-2-fluoro-5-(2-pyrimidinyloxy)phenyl]-3,4-dihydro-2,4-dimethyl-3-thioxo-1,2,4-triazin-5(2H)-one]
[1]; 125 g ai/ha
  CORN crop damage, phytotoxicity rating (0-100 scale): 5
[1]; 250 g ai/ha
  CORN crop damage, phytotoxicity rating (0-100 scale): 15
[2]; 125 g ai/ha
  SETVI phytotoxicity rating (0-100 scale): 50
[2]; 250 g ai/ha
  SETVI phytotoxicity rating (0-100 scale): 60
[3]; 125 g ai/ha
  CHEAL phytotoxicity rating (0-100 scale): 99
[3]; 250 g ai/ha
  CHEAL phytotoxicity rating (0-100 scale): 100
[4]; 125 g ai/ha
  CASOB phytotoxicity rating (0-100 scale): 55
[4]; 250 g ai/ha
  CASOB phytotoxicity rating (0-100 scale): 55
[5]; 125 g ai/ha
  ABUTH phytotoxicity rating (0-100 scale): 99
[5]; 250 g ai/ha
  ABUTH phytotoxicity rating (0-100 scale): 100
[6]; 125 g ai/ha
  AMBEL phytotoxicity rating (0-100 scale): 30
[6]; 250 g ai/ha
  AMBEL phytotoxicity rating (0-100 scale): 60
[7]; 125 g ai/ha
  ECHCG phytotoxicity rating (0-100 scale): 55
[7]; 250 g ai/ha
  ECHCG phytotoxicity rating (0-100 scale): 75
[8]; 125 g ai/ha
  AMARE phytotoxicity rating (0-100 scale): 100
[8]; 250 g ai/ha
  AMARE phytotoxicity rating (0-100 scale): 100
[9]; 125 g ai/ha
  DIGSA phytotoxicity rating (0-100 scale): 50
[9]; 250 g ai/ha
  DIGSA phytotoxicity rating (0-100 scale): 60
[10]; 125 g ai/ha
  SORHA phytotoxicity rating (0-100 scale): 50
[10]; 250 g ai/ha
  SORHA phytotoxicity rating (0-100 scale): 75
[11]; 125 g ai/ha
  IPOHE phytotoxicity rating (0-100 scale): 70
[11]; 250 g ai/ha
  IPOHE phytotoxicity rating (0-100 scale): 70
[12]; 125 g ai/ha
  SETVI phytotoxicity rating (0-100 scale): 100
[12]; 250 g ai/ha
  SETVI phytotoxicity rating (0-100 scale): 100
[13]; 125 g ai/ha
  CHEAL phytotoxicity rating (0-100 scale): 100
[13]; 250 g ai/ha
  CHEAL phytotoxicity rating (0-100 scale): 100
[14]; 125 g ai/ha
  CASOB phytotoxicity rating (0-100 scale): 50
[14]; 250 g ai/ha
  CASOB phytotoxicity rating (0-100 scale): 60
[15]; 125 g ai/ha
  ABUTH phytotoxicity rating (0-100 scale): 65
[15]; 250 g ai/ha
  ABUTH phytotoxicity rating (0-100 scale): 95
[16]; 125 g ai/ha
  AMBEL phytotoxicity rating (0-100 scale): 85
[16]; 250 g ai/ha
  AMBEL phytotoxicity rating (0-100 scale): 85
[17]; 125 g ai/ha
  ECHCG phytotoxicity rating (0-100 scale): 90
[17]; 250 g ai/ha
  ECHCG phytotoxicity rating (0-100 scale): 99
[18]; 125 g ai/ha
  AMARE phytotoxicity rating (0-100 scale): 100
[18]; 250 g ai/ha
  AMARE phytotoxicity rating (0-100 scale): 100
[19]; 125 g ai/ha
  DIGSA phytotoxicity rating (0-100 scale): 99
[19]; 250 g ai/ha
  DIGSA phytotoxicity rating (0-100 scale): 100
[20]; 125 g ai/ha
  SORHA phytotoxicity rating (0-100 scale): 99
[20]; 250 g ai/ha
  SORHA phytotoxicity rating (0-100 scale): 100
[21]; 125 g ai/ha
  IPOHE phytotoxicity rating (0-100 scale): 75
[21]; 250 g ai/ha
  IPOHE phytotoxicity rating (0-100 scale): 100
[22]; 125 g ai/ha
  CORN crop damage, phytotoxicity rating (0-100 scale): 0
[22]; 250 g ai/ha
  CORN crop damage, phytotoxicity rating (0-100 scale): 10
[23]; 125 g ai/ha
  RICE crop damage, phytotoxicity rating (0-100 scale): 50
[23]; 250 g ai/ha
  RICE crop damage, phytotoxicity rating (0-100 scale): 60
[24]; 125 g ai/ha
  SOY crop damage, phytotoxicity rating (0-100 scale): 0
[24]; 250 g ai/ha
  SOY crop damage, phytotoxicity rating (0-100 scale): 0
[25]; 125 g ai/ha
  RICE crop damage, phytotoxicity rating (0-100 scale): 0
[25]; 250 g ai/ha
  RICE crop damage, phytotoxicity rating (0-100 scale): 15
[26]; 125 g ai/ha
  SOY crop damage, phytotoxicity rating (0-100 scale): 50
[26]; 250 g ai/ha
  SOY crop damage, phytotoxicity rating (0-100 scale): 50
